Row | Compound | melting point
1 | COc1c(C)c(C)c(OC)c(N)c1N | 107 to 110 °C
2 | CC(CC(C)C1CCC2C3C(O)CC4CC(O)CCC4(C)C3CC(O)C12C)C(=O)O (stereo unspecified) | 151 to 153 °C
3 | N#Cc1ccc([C@@H]2CN(S(=O)(=O)c3cccc(C(=O)O)c3)C[C@@]23NC(=O)N(c2cc(Cl)cc(Cl)c2)C3=O)cc1 (relative stereo) | 150 °C
4 | O=C(O)Cc1c(C(=O)O)c2cc(Oc3ccc(Cl)cc3)ccc2n1-c1ccc(N2CCCCC2)cc1 | 183 to 187 °C
5 | CCc1nn2c(N)cc(N3CCN(C)CC3)nc2c1S(=O)(=O)c1ccccc1 | > 250 °C
6 | CS(=O)(=O)OCC(c1ccccc1)c1ccccc1 | 101 to 102 °C
7 | Nc1n[nH]cc1S(=O)(=O)c1ccccc1 | 159 to 161 °C
8 | CCc1cn2ccccc2c1S(=O)(=O)c1ccc(OS(=O)(=O)c2ccc(C)cc2)cc1 | 190 °C
9 | Cc1cn(C2CC(O)C(COC(c3ccccc3)(c3ccccc3)c3ccccc3)O2)c(=O)[nH]c1=O (stereo unspecified) | 107 to 110 °C
10 | COc1cc(COc2nn(-c3ccccc3)cc2/C=C/P(=O)(OC)OC)ccc1OCc1nc(-c2ccco2)oc1C | 107 to 108 °C
11 | O=S1(=O)NCC2(OCCO2)c2ccc3ccccc3c21 | 202 to 204 °C
12 | CCCCCCCCCCCCCCOc1ccc(COC(=O)NCc2ccccn2)cc1 | 67 to 68 °C
13 | CCn1c(=O)n(O)c(=O)c2cc(F)c(N3CCN(C)CC3)cc21 | 132 to 134 °C
14 | O=S1CCN(c2nc(N3CCNCC3)cc3c(Cl)cccc23)CC1 | 215 to 217 °C
15 | CC[C@@H]1NC(=O)C[C@]1(C)O | 87 to 111 °C
16 | CCCc1c(C(=O)C2CCCC2)c2ccc(C(N)=O)cc2n1Cc1cc2c(cc1Cl)OCO2 | 236 to 237 °C
17 | c1ccc(-c2nnc3ccc(N4CCOCC4)nn23)cc1 | 266 to 268 °C
18 | FC(F)(F)c1cccc(CCc2nnc(-c3ccc4ncsc4c3)o2)c1 | 126 to 127 °C
19 | CC(=O)Oc1cccc2c1C(=O)c1c(OC(C)=O)cc(-c3nc4ccccc4n3C)cc1C2=O | 279 to 280 °C

Row | Compound | melting point
20 | Oc1ccc2c(c1O)Cc1cccc3c1C2CNC3 (stereo unspecified) | 175 to 176 °C
21 | N#Cc1nn(-c2c(Cl)cc(OC(F)(F)F)cc2Cl)c(N)c1I | 150 °C
22 | COC(=O)N(C)CC#CCn1ccnc1 | 113 to 115 °C
23 | Cc1nc(-c2ccc(C=CC3CN4CCC3CC4)cc2)no1 (stereo unspecified) | 93 to 97 °C
24 | O=C=Nc1c(Cl)c(Cl)c(Cl)c(Cl)c1Cl | 100 to 102 °C
25 | CC1(C)OCC(C(N)=O)CO1 | 132 to 134 °C
26 | CCCCCCC/C=C/C(=O)NCC | 38 to 40 °C
27 | CON=C1SC(C)(c2ccccc2)C(=O)N1Nc1ccccc1 (stereo unspecified) | 133 to 134 °C
28 | Nc1ccc(CCc2nc3ccccc3s2)cc1 | 79 to 81 °C
29 | O=c1[nH]c2ncc(-c3ccc(O)cc3)nc2n1CC1CCOC1 (stereo unspecified) | 256 to 258 °C
30 | Cc1nc(C(=O)N2CCCC2)c2n1-c1ccc(Cl)cc1C(c1ccccc1F)=NC2 | 220 to 221 °C
31 | O=c1ccc(=O)c2c(=O)c3ccccc3c(=O)c1=2 | 211 to 213 °C
32 | O=C1NC(=O)C(Nc2ccc(CCNC[C@H](O)c3ccccc3)cc2)S1 (stereo partly specified) | 55 °C
33 | CN1C(=O)CC[C@]2(C)c3ccc(Sc4nc5cccc(Cl)c5s4)cc3CC[C@@H]12 | 90 to 91 °C
34 | Brc1ccc(C23CC4(c5ccc(Br)cc5)CC(c5ccc(Br)cc5)(C2)CC(c2ccc(Br)cc2)(C3)C4)cc1 | 354 °C
35 | CC12CCC(O)CC1=CCC1C2CCC2(C)C(c3cccnc3)=CCC12 (stereo unspecified) | 214 to 218 °C
36 | Cc1cccc2c(=O)n(C3CCC(=O)NC3=O)cnc12 (stereo unspecified) | 290 to 292 °C
37 | CC12CC(O)CCC1CCC1C2CCC2(C)C(O)C(N3CCCCC3)CC12 (stereo unspecified) | 215 to 219 °C

Results, then the compound that gave them:

Row | melting point | Compound
38 | 112 to 115 °C | O=C(CNC(=O)[C@@H]1CCCN1C(=O)O)NCc1ccccc1
39 | 94 to 95 °C | COc1cc(CCCC#N)ccc1OCc1nc(-c2ccco2)oc1C
40 | 145 to 147 °C | COc1cc(NC(=O)N2CCOCN2)c(F)cc1Cl
41 | 83 to 84 °C | COC(=O)c1cc(Br)c(C=O)o1
42 | 223 to 226 °C | C#Cc1cc(Nc2ncnc3cnc(F)cc23)ccc1F
43 | 258 °C | Cc1cccc2nc(Cn3cnc4c(N)ncnc43)n(-c3ccccc3C(C)C)c(=O)c12
44 | 220 °C | CCn1cc(C(=O)O)c(=O)c2cc(F)c(N3CCNC(c4cc[nH]c4)C3)cc21 (stereo unspecified)
45 | 231 to 234 °C | O=C(O)c1ccc(CNS(=O)(=O)c2ccc(F)cc2)cc1
46 | 129 to 131 °C | CCc1c(COC(C)=O)nc(-c2ccc(OC)c(OC)c2)c2cc(OC)c(OC)cc12
47 | 50 to 54 °C | COC=C(Oc1cccc(-c2ccc(Cl)cc2)n1)C(=O)OC
48 | 205 to 208 °C | CC(=O)c1c(C)[nH]c(-c2ccc(Cl)cc2)c1N
49 | 51 to 54 °C | Cc1cccc(OC(=O)c2ccccc2)c1
50 | 256 to 259 °C | C=Cn1cc(C(=O)O)c(=O)c2cc(F)c(O)nc21
51 | 97 to 98 °C | COc1ccc(C(=O)c2ccccc2NC(=O)CNC(=O)OCc2ccccc2)cc1
52 | 209 to 210 °C | Cc1ccc2nc(-c3cc(C(F)(F)F)nn3-c3ccc(S(C)(=O)=O)cc3)oc2c1
53 | 155 to 157 °C | CCN(CC)CC1CN(c2c(F)cc3c(=O)c(C(=O)O)cn(C4CC4)c3c2F)CCO1 (stereo unspecified)
54 | 165 to 167 °C | CCOC(=O)c1cn(Cc2ccccc2OC)c2sc(-c3ccc(OC)cc3)c(C)c2c1=O

Row | melting point | Compound
55 | 130 to 132 °C | CC(C)(C)c1nn(-c2cc(O)c(Cl)cc2Cl)c(=O)s1
56 | 227 to 230 °C | COc1cc2c(Nc3ccc(Cl)cc3F)ncnc2cc1OCCS(C)(=O)=O
57 | 104 to 106 °C | CCCCC(=O)N(Cc1ccc(-c2ccccc2-c2nnn[nH]2)cc1Br)[C@H](C(=O)OCc1ccccc1)C(C)C
58 | 205 to 206 °C | CCn1cc(CN(C(=O)C2CCc3c(O)cccc32)c2ccc(C(C)C)cc2)cn1 (stereo unspecified)
59 | 127 to 130 °C | CS(=O)(=O)c1cc(C(=O)NCCN2CCOCC2)c(NCc2ccco2)cc1Cl
60 | 143 to 144 °C | CCCn1c(=O)c2cc(C(=O)OCC)cn2c2ccccc21
61 | 131 °C | COc1ccc(NC(=O)CN2CC(C)N(C(c3ccc(F)cc3)c3ccc(F)cc3)CC2C)cc1 (stereo unspecified)
62 | 148 to 150 °C | CCc1nn(C2CCC2)c2cc(C(=O)O)ccc12
63 | 47 °C | CC(C)CN(CC(C)C)C(=O)c1ccc(F)c([N+](=O)[O-])c1
64 | 71 to 73 °C | COc1ccc2cc([C@H](C)C(=O)OCC(=O)N(C)CC(=O)OCCO[N+](=O)[O-])ccc2c1
65 | 71 to 73 °C | Clc1ccc(C2=CCCC2)cc1
66 | 154 to 155 °C | COc1cccc(NC(=O)c2ccc(C(=O)N3CCCc4ccccc43)cc2)c1
67 | 92 to 93 °C | COc1cc(OC)c2c(=O)[nH]c(-c3ccc(OCCO)c(-c4ccccc4S(C)(=O)=O)n3)nc2c1
68 | 101 to 108 °C | CC(C)N(C[C@H](O)[C@H](Cc1ccccc1)NC(=O)[C@H](CC(N)=O)NCc1ccccn1)NC(=O)OC(C)(C)C
69 | 81.5 to 82.5 °C | CCCCC[C@@H](CNC(=O)Nc1c(OCC)ccc2c1CCCC2)c1cccc2c1OCO2
70 | 129 to 131 °C | Cc1cc(CON2C(=O)c3ccccc3C2=O)on1
71 | 157 to 159 °C | O=C1CCN(C(=O)c2ccc(Cl)cc2Cl)c2c(Cl)cccc21

Reference: a melting point compilation (Tetko et al.; mined from patent text by program, amines drawn as free bases though some values may be those of a salt)
